Assay results as given in patent US20140193824A1, “High-Resolution Clonal Typing of Escherichia coli” (priority 2013, published 2014).
Read-outs that look alike come from different tables or passages of the source.

What was measured:
[1] = test system: clinical E. coli isolates; assay: Clonotype-guided (CH, fumC-fimH) prediction of antimicrobial resistance, primary collection, >=80% clonotype susceptibility cutoff; parameters: species or system Escherichia coli; settings: for Resistance among allowed isolates (actual prevalence of resistance): allowed population; for Resistance among rejected isolates: rejected population
Procedure: (§1) Antimicrobial susceptibility profiles were determined using disk diffusion testing. The interpretive criteria were those specified by the Clinical and Laboratory Standards Institute (CLSI).
Internal (<500 bp) regions of fumC and fimH were amplified by PCR, and the DNA sequences were determined by Sanger sequencing. Each unique combination of fumC and fimH alleles defined a CH clonotype. The diversity of the clonotype distribution was evaluated using the Simpson's modified alpha-diversity index.
(§2) Each isolate in the primary collection was classified as resistant or susceptible to each of the 11 antimicrobials based on the prevalence of susceptibility to the particular antimicrobial in the rest of isolates belonging to the same clonotype (i.e., for each isolate classification, the susceptibility of the corresponding clonotype was recalculated by excluding the profile of the isolate to be classified). Thus, clonotype-guided antibiotic selection was evaluated only for isolates from clonotypes comprising greater than or equal to 2 isolates.

[2] = test system: clinical E. coli isolates; assay: Antimicrobial susceptibility by disk diffusion testing (CLSI criteria) of clinical E. coli isolates; assay type: cell-based, Escherichia coli; settings: for Observed Resistance rate: rate of resistant isolates among 1,413 nonsingleton isolates of the primary collection
Procedure: (Veterans Affairs Medical Center).
Antimicrobial susceptibility profiles were determined using disk diffusion testing.
The prevalence of susceptibility to individual agents was calculated for the total primary collection, for individual participating laboratories, and for individual CH clonotypes. Odds ratios (ORs) were calculated for each subgroup (i.e., laboratory or clonotype) relative to the rest of the population. If the OR was >2 or <0.5, its statistical significance was evaluated using Fisher's exact test.

[3] = test system: clinical E. coli isolates
Source text: The primary set of 1,518 recent clinical E. coli isolates consisted of consecutive single-patient human extraintestinal isolates recovered between October 2010 and June 2011 at five clinical microbiology laboratories serving distinct patient populations in Seattle, Wash. (Group Health Cooperative, Harborview Medical Center, Seattle Children's Hospital, and the University of Washington Medical Center), and Minneapolis, Minn. (Veterans Affairs Medical Center). […] Another set of E. coli isolates was obtained from the University Hospital in Munster, Germany, and consisted of 161 consecutive isolates from urine samples recovered from July to September 2012.
as §1, §2
To avoid potential self-selection bias in the analysis of these smaller groups, the susceptibility classification for the isolates in each subset was done after excluding the susceptibility profiles of that particular subset, i.e., by using the clonotype susceptibility profiles of the remaining isolates from common clonotypes (Table 4).

[4] = Harborview Med. Center, Seattle

Row | Compound | Resistance among allowed isolates (actual prevalence of resistance) [1] [%] | Resistance among rejected isolates [1] [%] | Observed Resistance rate [2] [%] | also measured
1 | O=C1CN(/N=C/c2ccc([N+](=O)[O-])o2)C(=O)N1 [NIT, nitrofurantoin] | 5.5 | 27.4 | 6.79 | 
2 | amoxicillin-clavulanate [A/K] |  |  | 25.5 | 
3 | trimethoprim-sulfamethoxazole [T/S] |  |  | 26.9 | Total Resistant ([2]; Children's Hospital, Seattle): 34.2%; Total Resistant ([2]; Group Health Co-op, Seattle): 20.1%; Total Resistant [2, 4]: 30.4%; Total Resistant ([2]; Univ. of Münster, Münster, 161 urine isolates): 32.6%; Total Resistant ([2]; Univ. of Washington, Seattle): 33.3%; Total Resistant ([2]; VA Med. Center, Minneapolis): 34.0%; Resistance among allowed isolates ([3]; Children's Hospital, Seattle): 14.2%; Resistance among allowed isolates ([3]; Group Health Co-op, Seattle): 5.0%; Resistance among rejected isolates ([3]; Group Health Co-op, Seattle): 36.2%; Resistance among allowed isolates [3, 4]: 7.4%; Resistance among allowed isolates ([3]; Univ. of Münster, Münster): 14.3%; Resistance among allowed isolates ([3]; Univ. of Washington, Seattle): 11.4%; Resistance among rejected isolates ([3]; Univ. of Washington, Seattle): 62.6%; Resistance among allowed isolates ([3]; VA Med. Center, Minneapolis): 17.0%; Actual prevalence of resistance among allowed isolates, mean ([3]; mean over the laboratories): 12.1%
4 | CO/N=C(\C(=O)N[C@@H]1C(=O)N2C(C(=O)O)=C(CSc3nc(=O)c(=O)[nH]n3C)CS[C@H]12)c1csc(N)n1 [CTR, ceftriaxone] | 4.2 | 31.1 | 5.38 | 
5 | gentamicin [GM] | 4.3 | 31.4 | 8.92 | 
6 | CN(C)[C@@H]1C(O)=C(C(N)=O)C(=O)[C@@]2(O)C(O)=C3C(=O)c4c(O)cccc4[C@@](C)(O)[C@H]3C[C@@H]12 [TET, tetracycline] | 11.5 | 48.0 | 29.5 | 
7 | Cc1nnc(SCC2=C(C(=O)O)N3C(=O)[C@@H](NC(=O)Cn4cnnn4)[C@H]3SC2)s1 [CZ, cefazolin] | 10.7 | 32.0 | 19.7 | 
8 | ampicillin-sulbactam [A/S] | 13.0 | 37.9 | 29.4 | 
9 | piperacillin-tazobactam [PTZ] | 3.8 | 13.3 | 3.96 | 
10 | CC1(C)S[C@@H]2[C@H](NC(=O)[C@H](N)c3ccccc3)C(=O)N2[C@H]1C(=O)O [AMP, ampicillin] | 21.9 | 60.1 | 51.6 | 
